# Results published in US9724380B2, “Method and compositions for synchronizing time of insemination in gilts” (JBS UNITED ANIMAL HEALTH II LLC, priority 2012, dated 2017).
# Legend:
# gilts = experiment: Example 5: ovulation monitored by transrectal ultrasonography after 100, 200 or 400 mcg triptorelin gel intravaginally at 120 h after MATRIX withdrawal; type: in vivo, swine; conditions: for Percentage ovulated by 48 hours: blood-sampled subpopulation; for % of Sows Ovulating: raw average, PTK 2-07
# Protocol: (§1) All gilts were individually fed MATRIX® as a top-dress for 14 or 15 days at the recommended rate of 15 mg/gilt/day. Gilts were withdrawn from MATRIX® feeding (last top-dress in the morning on Day 0) and allocated to each of the following treatments. Controls were vehicle gel treated (vehicle gel without triptorelin) at 120 (+/−2) hours following MATRIX® withdrawal (last top dress). The other gilts were given 100, 200 or 400 mcg triptorelin as the acetate in a methylcellulose gel formulation 120 (+/−2) hours following MATRIX® withdrawal. The four treatments were: • 1. Vehicle gel (VG): vehicle gel without triptorelin at 120 (+/−2) hours after MATRIX® withdrawal. • 2. TG 100: 100 mcg (2 mL 50 mcg/mL) triptorelin gel at 120 (+/−2) hours after MATRIX® withdrawal. • 3. TG 200: 200 mcg (2 mL 100 mcg/mL) triptorelin gel at 120 (+/−2) hours after MATRIX® withdrawal. • 4. TG 400: 400 mcg (2 mL 200 mcg/mL) triptorelin gel at 120 (+/−2) hours after MATRIX® withdrawal.
# Triptorelin (pGlu-His-Trp-Ser-Tyr-D-Trp-Leu-Arg-Pro-Gly-NH2) was supplied in the acetate form, from Bachem, Torrance, Calif. (Item H-4075 CGMP grade). Triptorelin gel (100-400 mcg/2 mL dose) was formulated by Argenta (Auckland, NZ) in a gel composed of Methocel Premium A4000 (Dow Chemical), citrate buffer (pH 5.5), NaCl, methionine, and methyl and propyl parabens. Fifty-four milliliters of triptorelin gel (100 mcg triptorelin acetate/mL) was packaged in Amber Borosilicate Glass Serum Vials (610206-50) with a Gray Butyl Pharmaceutical Serum Vial Stopper (73828A-SS) with a Standard Aluminum Seal (SAS20NAT). […] MATRIX® was supplied as the US commercially available form.
# Ovulation was monitored twice on Day 5 (8 hours and 16 hours post-treatment) and every 8 hours on Day 6 and Day 7 or until ovulation was confirmed or 176 hours following last MATRIX® feeding. The ovulatory status of all gilts was monitored by transrectal ultrasonography. An Aloka 500 ultrasound machine is used for this purpose, with a 7.5 MHz linear array transducer attached to a fixed-angle PVC stabilizing rod to facilitate insertion into the rectum. The transducer and PVC rod are coated with a gynecological lubricant and gently inserted into the rectum until the ovaries can be visualized, one at a time. The diameters of the three largest follicles were recorded (to the nearest 0.1 mm) at each scanning. A gilt was declared to have ovulated when the number of large follicles (≧6.5 mm) fell to less than 3.
# (§2) A single 2 mL dose of triptorelin gel or vehicle gel was deposited within approximately 1-2 cm posterior to the cervix with a catheter similar to those used for artificial insemination. The dose was delivered using a standard multi-dose applicator attached to the catheter. A new disposable sheath, which surrounds the catheter, was used for each gilt.
# serum LH = experiment: Example 5: serum LH surge after triptorelin gel (jugular catheter subpopulation); type: in vivo, swine
# Protocol: as §1
# A catheter was inserted non-surgically into the jugular vein (Kraeling et al. 1982) of a subpopulation of gilts in each treatment group (vehicle gel, n=8; 100 mcg triptorelin, n=6; 200 mcg triptorelin, n=7 and 400 mcg triptorelin, n=6). Ten mL blood samples were collected every 15 minutes for one hour prior to treatment, immediately following treatment (0) and at 0.5, 1, 2, 4, 6, 12, 18, 24, 36 and 48 hours after treatment. Blood samples were maintained at 4° C. until centrifuged at 800×g for 15 minutes within 12 hours of collection. The resulting serum was stored frozen until assayed for LH using validated procedures for pig serum (Kesner et al., 1987 and Kraeling et al., 1982). Onset, duration, and magnitude of the LH surge were analyzed. The LH data were analyzed with the General Linear Models procedure of SAS. Differences between treatments were tested on least squares means estimates using the T test at P<0.05. Onset of the LH surge is when serum LH concentration is greater than or equal to two standard deviations of the mean of the pre-treatment serum LH concentrations. Duration of the LH surge is the period between onset and when serum LH concentration is again less than or equal to two standard deviations of the mean of the pre-treatment serum LH concentrations. Magnitude of the LH surge is the maximum serum LH concentration reached during the LH surge.
# as §2
# [1] = 200 mcg T, LS mean (1 gilt with surge)
# [2] = 200 mcg T, relative to time of triptorelin gel treatment, LS mean (1 gilt with surge)
smiles,measurement,setting,value
"CC(C)C[C@H](NC(=O)[C@@H](Cc1c[nH]c2ccccc12)NC(=O)[C@H](Cc1ccc(O)cc1)NC(=O)[C@H](CO)NC(=O)[C@H](Cc1c[nH]c2ccccc12)NC(=O)[C@H](Cc1c[nH]cn1)NC(=O)[C@@H]1CCC(=O)N1)C(=O)N[C@@H](CCCNC(=N)N)C(=O)N1CCC[C@H]1C(=O)NCC(N)=O [T, pGlu-His-Trp-Ser-Tyr-D-Trp-Leu-Arg-Pro-Gly-NH2]",Percentage ovulated by 48 hours,gilts; 100 mcg T (n = 6),100%
same,% of Sows Ovulating,"gilts; 100 mcg T, 128 h post-MATRIX (8 h post-T)",0.0%
same,% of Sows Ovulating,"gilts; 100 mcg T, 136 h post-MATRIX (16 h post-T)",5.0%
same,% of Sows Ovulating,"gilts; 100 mcg T, 144 h post-MATRIX (24 h post-T)",20.0%
same,% of Sows Ovulating,"gilts; 100 mcg T, 152 h post-MATRIX (32 h post-T)",30.0%
same,% of Sows Ovulating,"gilts; 100 mcg T, 160 h post-MATRIX (40 h post-T)",60.0%
same,% of Sows Ovulating,"gilts; 100 mcg T, 168 h post-MATRIX (48 h post-T)",95.0%
same,% of Sows Ovulating,"gilts; 100 mcg T, 176 h post-MATRIX (56 h post-T)",100.0%
same,Percentage ovulated by 48 hours,gilts; 200 mcg T (n = 7),100%
same,% of Sows Ovulating,"gilts; 200 mcg T, 128 h post-MATRIX (8 h post-T)",0.0%
same,% of Sows Ovulating,"gilts; 200 mcg T, 136 h post-MATRIX (16 h post-T)",0.0%
same,Percentage ovulated by 48 hours,gilts; 400 mcg T (n = 6),100%
same,% of Sows Ovulating,"gilts; 400 mcg T, 128 h post-MATRIX (8 h post-T)",4.5%
same,% of Sows Ovulating,"gilts; 400 mcg T, 136 h post-MATRIX (16 h post-T)",9.1%
same,% of Sows Ovulating,"gilts; 400 mcg T, 168 h post-MATRIX (48 h post-T)",100.0%
same,% of Sows Ovulating,"gilts; 400 mcg T, 176 h post-MATRIX (56 h post-T)",100.0%
same,"Gilts, which displayed a LH surge (number)",serum LH; 100 mcg T (n = 6),4
same,Magnitude of LH surge (maximum serum LH concentration),"serum LH; 100 mcg T, LS mean ± SE",3.94 ± 1.22
same,Onset of LH surge,"serum LH; 100 mcg T, relative to time of triptorelin gel treatment, LS mean ± SE",4 ± 3
same,"Gilts, which displayed a LH surge (number)",serum LH; 200 mcg T (n = 7),1
same,Duration of LH surge,serum LH; [1],18
same,Magnitude of LH surge (maximum serum LH concentration),serum LH; [1],8.98
same,Onset of LH surge,serum LH; [2],0.5
same,Time of maximum LH conc.,serum LH; [2],4
same,"Gilts, which displayed a LH surge (number)",serum LH; 400 mcg T (n = 6),5
same,Magnitude of LH surge (maximum serum LH concentration),"serum LH; 400 mcg T, LS mean ± SE",11.65 ± 12.35
same,Onset of LH surge,"serum LH; 400 mcg T, relative to time of triptorelin gel treatment, LS mean ± SE",4 ± 4
